{"source": "patent US10125118B2", "about": "“Heteroaryl compounds and their use as therapeutic drugs” (Dong-A Socio Holdings Co., Ltd., priority 2015, dated 2018)", "key": {"[1]": {"system": "CD8-MerTK in Ba/F3-CDM cells", "assay": "In cell MER kinase assay, Ba/F3-CDM cell proliferation without IL-3 (Celltiter-Glo)", "type": "cell-based, murine", "conditions": "48 hours compound treatment, read-out: Cell growth inhibition (GI50)", "procedure": "To establish an in cell kinase assay for MerTK kinase, the IL-3 dependent Ba/F3 cells of murine lymphoid origin was transfected with CD8-MerTK. […] For a routine cellular assay, Ba/F3-CDM cells were seeded at 2,000 cells per well in 384-well cell culture plate containing DMEM/10% FBS culture media and incubated for 24 hours before addition of compounds pre-diluted in culture media. Following compound treatment, cells were further incubated for 48 hours and the proliferation was measured. To discriminate a Ba/F3 growth inhibition by a specific inhibition of MerTK kinase following compound treatment vs growth inhibition due to a non-specific unintended cytotoxicity of compounds, we routinely carried out control sets of Ba/F3 cells in parallel that grown in IL3-supplemented growth media. In the presence of IL-3, the proliferation of Ba/F3 is no longer dependent on the MerTK activity. Cell growth and proliferation was measured with Celltiter-Glo™ system (Promega, USA) according to the manufacturer's instruction. The half-maximal growth inhibitory concentration (GI50) value was calculated with Prism6.0 software (GraphPad, USA)."}, "[2]": {"target": "human c-MER catalytic domain (Homo sapiens (Human), UniProt Q12866)", "sequence (Q12866 587-858)": "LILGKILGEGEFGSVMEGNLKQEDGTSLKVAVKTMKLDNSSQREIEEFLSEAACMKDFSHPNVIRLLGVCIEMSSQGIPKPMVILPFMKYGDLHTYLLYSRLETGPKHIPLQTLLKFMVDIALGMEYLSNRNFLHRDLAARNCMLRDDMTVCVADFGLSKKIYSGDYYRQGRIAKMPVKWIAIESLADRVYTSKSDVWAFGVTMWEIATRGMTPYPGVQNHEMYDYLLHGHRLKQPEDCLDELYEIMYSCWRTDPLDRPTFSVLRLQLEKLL", "assay": "LanthaScreen TR-FRET kinase assay, c-MER", "conditions": "read-out: Mer TK inhibition (IC50); Biochemical IC50, TR-FRET, 10 uM ATP"}}}
{"smiles": "CN1CCN(Cc2ccc(-c3ccc(CO[C@H]4CN(C)C[C@@H]4NC(=O)c4cc(-c5cnn(C)c5)cnc4N)cc3)cc2C(F)(F)F)CC1", "note": "[Example 437, 2-amino-5-(1-methyl-1H-pyrazol-4-yl)-N-((3S,4S)-1-methyl-4-((4′-((4-methylpiperazin-1-yl)methyl)-3′-(trifluoromethyl)-[1,1′-biphenyl]-4-yl)-methoxy)pyrrolidin-3-yl)nicotinamide]", "values": [{"measurement": "GI50", "setting": "[1]", "value": "< 100", "unit": "nM"}, {"measurement": "IC50", "setting": "[2]", "value": "< 10", "unit": "nM"}]}
{"smiles": "CN1CCN(Cc2ccc(-c3ccc(CO[C@H]4CCC[C@@H]4NC(=O)c4cc(-c5cnn(C(F)(F)C(F)F)c5)cnc4N)cc3)cc2)CC1", "note": "[Example 387]", "values": [{"measurement": "GI50", "setting": "[1]", "value": "< 100", "unit": "nM"}, {"measurement": "IC50", "setting": "[2]", "value": "< 10", "unit": "nM"}]}
{"smiles": "CCN1CCN(Cc2ccc(-c3ccc(CO[C@H]4CCC[C@@H]4NC(=O)c4cc(-c5cnn(C)c5)cnc4N)cc3)cc2)CC1", "note": "[Example 183, 2-amino-N-((1S,2S)-2-((4′-((4-ethylpiperazin-1-yl)methyl)-[1,1′-biphenyl]-4-yl)methoxy)cyclopentyl)-5-(1-methyl-1H-pyrazol-4-yl)nicotinamide]", "values": [{"measurement": "GI50", "setting": "[1]", "value": "< 100", "unit": "nM"}, {"measurement": "IC50", "setting": "[2]", "value": "< 10", "unit": "nM"}]}
{"smiles": "CC(c1ccc(-c2ccc(CO[C@H]3CNC[C@@H]3NC(=O)c3cc(-c4cnn(C)c4)cnc3N)cc2)cc1)N1CCN(CCO)CC1", "note": "(stereo partly drawn) [Example 442, 2-amino-N-((3S,4S)-4-((4′-(1-(4-(2-hydroxyethyl)piperazin-1-yl)ethyl)-[1,1′-biphenyl]-4-yl)methoxy)pyrrolidin-3-yl)-5-(1-methyl-1H-pyrazol-4-yl)nicotinamide]", "values": [{"measurement": "GI50", "setting": "[1]", "value": "> 1000", "unit": "nM"}, {"measurement": "IC50", "setting": "[2]", "value": "< 10", "unit": "nM"}]}
{"smiles": "CN(C)CCCOc1ccc(-c2ccc(CO[C@H]3CCC[C@@H]3NC(=O)c3cc(-c4cnn(C)c4)cnc3N)cc2)cc1", "note": "[Example 246, 2-amino-N-((1S,2S)-2-((4′-(3-(dimethylamino)propoxy)-[1,1′-biphenyl]-4-yl)methoxy)cyclopentyl)-5-(1-methyl-M-pyrazol-4-yl)nicotinamide]", "values": [{"measurement": "GI50", "setting": "[1]", "value": "100 to 500", "unit": "nM"}, {"measurement": "IC50", "setting": "[2]", "value": "< 10", "unit": "nM"}]}
{"smiles": "CN1CCN(Cc2ccc(-c3ccc(CO[C@H]4CCC[C@@H]4NC(=O)c4cc(-c5cnn(C)c5)cnc4N)c(F)c3)cc2)CC1", "note": "[Example 156, 2-amino-N-((1S,2S)-2-((3-fluoro-4′-((4-methylpiperazin-1-yl)-methyl)-[1,1′-biphenyl]-4-yl)methoxy)cyclopentyl)-5-(1-methyl-1H-pyrazol-4-yl)-nicotinamide]", "values": [{"measurement": "GI50", "setting": "[1]", "value": "< 100", "unit": "nM"}, {"measurement": "IC50", "setting": "[2]", "value": "< 10", "unit": "nM"}]}
{"smiles": "C[C@@H](c1ccc(-c2ccc(CO[C@H]3CCC[C@@H]3NC(=O)c3cc(-c4ccc(F)nc4)cnc3N)cc2)cc1)N1CCN(CCO)CC1", "note": "[Example 226, 6-amino-6′-fluoro-N-((1S,2S)-2-((4′-((S)-1-(4-(2-hydroxyethyl)piperazin-1-yl)ethyl)-[1,1′-biphenyl]-4-yl)methoxy)cyclopentyl)-[3,3′-bipyridine]-5-carboxamide]", "values": [{"measurement": "GI50", "setting": "[1]", "value": "< 100", "unit": "nM"}, {"measurement": "IC50", "setting": "[2]", "value": "< 10", "unit": "nM"}]}
{"smiles": "Cn1cc(-c2cnc(N)c(C(=O)N[C@H]3CCC[C@@H]3OCc3ccc(-c4ccc(CC5CCN(CC(N)=O)CC5)cc4)cc3)c2)cn1", "note": "[Example 242, 2-amino-N-((1S,2S)-2-((4′-((1-(2-amino-2-oxoethyl)piperidin-4-yl)methyl)-[1,1′-biphenyl]-4-yl)methoxy)cyclopentyl)-5-(1-methyl-1H-pyrazol-4-yl)-nicotinamide]", "values": [{"measurement": "GI50", "setting": "[1]", "value": "< 100", "unit": "nM"}, {"measurement": "IC50", "setting": "[2]", "value": "< 10", "unit": "nM"}]}
{"smiles": "Cn1cc(-c2cnc(N)c(C(=O)N[C@H]3CCC[C@@H]3OCc3ccc(-c4ccc(CN5CCN(CC(C)(C)O)CC5)cc4)cc3)c2)cn1", "note": "[Example 182, 2-amino-N-((1S,2S)-2-((4′-((4-(2-hydroxy-2-methylpropyl)-piperazin-1-yl)methyl)-[1,1′-biphenyl]-4-yl)methoxy)cyclopentyl)-5-(1-methyl-1H-pyrazol-4-yl)nicotinamide]", "values": [{"measurement": "GI50", "setting": "[1]", "value": "< 100", "unit": "nM"}, {"measurement": "IC50", "setting": "[2]", "value": "< 10", "unit": "nM"}]}
{"smiles": "CC(c1ccc(-c2ccc(CO[C@H]3CCC[C@@H]3NC(=O)c3cc(-c4ccc(F)nc4)cnc3N)cc2)cc1)N1CCN(CCO)CC1", "note": "(stereo partly drawn) [Example 237, 6-amino-6′-fluoro-N-((1S,2S)-2-((4′-(1-(4-(2-hydroxyethyl)-piperazin-1-yl)ethyl)-[1,1′-biphenyl]-4-yl)methoxy)cyclopentyl)-[3,3′-bipyridine]-5-carboxamide]", "values": [{"measurement": "GI50", "setting": "[1]", "value": "< 100", "unit": "nM"}, {"measurement": "IC50", "setting": "[2]", "value": "< 10", "unit": "nM"}]}
{"smiles": "C[C@@H](c1ccc(-c2ccc(CO[C@H]3CCC[C@@H]3NC(=O)c3cc(-c4ccc(F)nc4)cnc3N)cc2)cc1)N1CCN(C)CC1", "note": "[Example 222, 6-amino-6′-fluoro-N-((1S,2S)-2-((4′-((S)-1-(4-methylpiperazin-1-yl)ethyl)-[1,1′-biphenyl]-4-yl)methoxy)cyclopentyl)-[3,3′-bipyridine]-5-carboxamide]", "values": [{"measurement": "GI50", "setting": "[1]", "value": "< 100", "unit": "nM"}, {"measurement": "IC50", "setting": "[2]", "value": "< 10", "unit": "nM"}]}
{"smiles": "COC(=O)CN1CCC(Cc2ccc(-c3ccc(CO[C@H]4CCC[C@@H]4NC(=O)c4cc(-c5cnn(C)c5)cnc4N)cc3)cc2)CC1", "note": "[Example 241, Methyl 2-(4-((4′-((((1S,2S)-2-(2-amino-5-(1-methyl-1H-pyrazol-4-yl)nicotinamido)cyclopentyl)oxy)methyl)-[1,1′-biphenyl]-4-yl)methyl)piperidin-1-yl)-acetate]", "values": [{"measurement": "GI50", "setting": "[1]", "value": "500 to 1000", "unit": "nM"}, {"measurement": "IC50", "setting": "[2]", "value": "< 10", "unit": "nM"}]}
{"smiles": "CN1CCN(Cc2ccc(-c3ccc(CO[C@H]4CNC[C@@H]4NC(=O)c4cc(-c5cnn(C)c5)cnc4N)cc3)cc2)CC1", "note": "[Example 434, 2-amino-5-(1-methyl-1H-pyrazol-4-yl)-N-((3S,4S)-4-((4′-((4-methylpiperazin-1-yl)methyl)-[1,1′-biphenyl]-4-yl)methoxy)pyrrolidin-3-yl)-nicotinamide]", "values": [{"measurement": "GI50", "setting": "[1]", "value": "500 to 1000", "unit": "nM"}, {"measurement": "IC50", "setting": "[2]", "value": "< 10", "unit": "nM"}]}
{"smiles": "Cn1cc(-c2cnc(N)c(C(=O)N[C@H]3CCC[C@@H]3OCc3ccc(-c4ccc(CN5CCN(CCO)CC5)c(C(F)(F)F)c4)cc3)c2)cn1", "note": "[Example 205, 2-amino-N-((1S,2S)-2-((4′-((4-(2-hydroxyethyl)piperazin-1-yl)methyl)-3′-(trifluoromethyl)-[1,1′-biphenyl]-4-yl)methoxy)cyclopentyl)-5-(1-methyl-1H-pyrazol-4-yl)nicotinamide]", "values": [{"measurement": "GI50", "setting": "[1]", "value": "< 100", "unit": "nM"}, {"measurement": "IC50", "setting": "[2]", "value": "< 10", "unit": "nM"}]}
{"smiles": "Cn1cc(-c2cnc(N)c(C(=O)N[C@H]3COC[C@@H]3OCc3ccc(-c4ccc(C(C)(C)N5CCN(CCO)CC5)cc4)cc3)c2)cn1", "note": "[Example 453, 2-amino-N-((3S,4R)-4-((4′-(2-(4-(2-hydroxyethyl)piperazin-1-yl)-propan-2-yl)-[1,1′-biphenyl]-4-yl)methoxy)tetrahydrofuran-3-yl)-5-(1-methyl-1H-pyrazol-4-yl)nicotinamide]", "values": [{"measurement": "GI50", "setting": "[1]", "value": "100 to 500", "unit": "nM"}, {"measurement": "IC50", "setting": "[2]", "value": "< 10", "unit": "nM"}]}
{"smiles": "CCc1cccc(CO[C@H]2CNC[C@@H]2NC(=O)c2cc(-c3cnn(C)c3)cnc2N)c1", "note": "[Example 416, 2-amino-N-((3S,4S)-4-((3-ethylbenzyl)oxy)pyrrolidin-3-yl)-5-(1-methyl-1H-pyrazol-4-yl)nicotinamide]", "values": [{"measurement": "GI50", "setting": "[1]", "value": "100 to 500", "unit": "nM"}, {"measurement": "IC50", "setting": "[2]", "value": "< 10", "unit": "nM"}]}
{"smiles": "CCc1cc(CO[C@H]2CNC[C@@H]2NC(=O)c2cc(-c3cccnc3)cnc2N)ccc1C", "note": "[Example 396, 6-amino-N-((3S,4S)-4-((3-ethyl-4-methylbenzyl)oxy)pyrrolidin-3-yl)-[3,3′-bipyridine]-5-carboxamide]", "values": [{"measurement": "GI50", "setting": "[1]", "value": "> 1000", "unit": "nM"}, {"measurement": "IC50", "setting": "[2]", "value": "< 10", "unit": "nM"}]}
{"smiles": "CN1CCN(Cc2ccc(-c3ccc(CO[C@H]4CCC[C@@H]4NC(=O)c4cc(-c5ccc(Cl)c(F)c5)cnc4N)cc3)cc2)CC1", "note": "[Example 373, 2-amino-5-(4-chloro-3-fluorophenyl)-N-((1S,2S)-2-((4′-((4-methylpiperazin-1-yl)methyl)-[1,1′-biphenyl]-4-yl)methoxy)cyclopentyl)nicotinamide]", "values": [{"measurement": "GI50", "setting": "[1]", "value": "100 to 500", "unit": "nM"}]}
